Earlier results as cited in patent US20160355464A1, “FUMARATE COMPOUNDS, PHARMACEUTICAL COMPOSITIONS THEREOF, AND METHODS OF USE” (priority 2015, published 2016).

COC(=O)/C=C/C(=O)OC [DMF, dimethylfumarate]
aqueous solubility: poor aqueous solubility
